Laboratory results published in US5556859A, “N-(4-pyrimidinyl)amide pesticides” (DowElanco, priority 1994, dated 1996).

Tests used:
[1] = test system: two spotted spider mite (Tetranychus urticae); experiment: whole plant or invertebrate; conditions: 72 h, read-out: percent mortality, TSSM
[2] = test system: German cockroach (Blattella germanicus); experiment: whole plant or invertebrate; conditions: 240 h, read-out: percent mortality, GECR
[3] = test system: tobacco budworm (Heliothis virescens); experiment: Activity against tobacco budworm (TBW); format: in vivo; conditions: 144 h, read-out: percent mortality, TBW
Experimental: In conducting evaluations of insecticidal activity, each test compound was formulated as a 400 ppm solution, and this solution was then diluted with water to give lesser concentrations. The 400 ppm solution was prepared by combining 19.2 mL of 0.05% solution of Tween 20 (polyoxyethylene (20) sorbitan monolaurate) in water with a solution of 8 mg of the compound in 0.8 mL of acetone/EtOH (9/1).
Activity against tobacco budworm (Heliothis virescens) was evaluated as follows. A general purpose lepidoptera artificial diet was diluted to half strength with a 5% non nutritive agar. 8 mL of this diet material was dispensed into each one ounce diet cup. One hour prior to treatment 18 to 20 eggs were dispensed onto the diet surface. The cups were then sprayed with formulated material through a flat-fan nozzle. The test was run using concentrations of 400 ppm and 50 ppm. Treated cups were air dried prior to sealing with plastic caps. The cups were held for 6 days at room temperature. Activity was then rated based on the total number of live and dead larvae, and on the size of live larvae.

[4] = test system: beet armyworm (Spodoptera exiqua); experiment: whole plant or invertebrate; conditions: 144 h, read-out: percent mortality, BAW
[5] = test system: peanut root knot nematode (Meloidogyne arenaria); experiment: whole plant or invertebrate; conditions: in Arachis hypogaea, read-out: percent mortality, RKN
[6] = test system: cotton aphid (Aphis gossypii); experiment: whole plant or invertebrate; conditions: 72 h, read-out: percent mortality, CA
[7] = test system: Southern corn rootworm (Diabrotica undecimpuctata howardi Barber); experiment: whole plant or invertebrate; conditions: in Zea mays, soil, read-out: percent mortality, SCRW

Structure (SMILES) | mortality at 400 ppm [1] [%] | mortality at 400 ppm [2] [%] | mortality at 400 ppm [3] [%] | mortality at 400 ppm [4] [%] | mortality at 400 ppm [5] [%] | mortality at 400 ppm [6] [%] | mortality at 24 µg/g [7] [%]
CCc1nccc(NC(=O)Cc2ccc(Oc3ccc(Cl)cc3)cc2)n1 [Compound 17, 4-(4-chlorophenoxy)phenyl-N-(2-ethyl-4-pyrimidinyl)acetamide] | 100 | 100 | 100 | 100 | 100 | 100 | 100
CCCc1nccc(NC(=O)Cc2ccc(OCC(F)(F)F)cc2)n1 [Compound 18, 4-(2,2,2-trifluroethoxy)phenyl-N-(2-propyl-4-pyrimidinyl)acetamide] | 80 | 20 | 80 | 100 | 100 | 100 | 0
CCCc1nccc(NC(=O)Cc2ccc(Oc3ccc(F)cc3)cc2)n1 [Compound 19, 4-(4-fluorophenoxy)phenyl-N-(2-propyl-4-pyrimidinyl)acetamide] | 100 | 100 | 100 | 100 | 100 | 100 | 100
CCCCc1nccc(NC(=O)Cc2ccc(OCC(F)(F)F)cc2)n1 [Compound 20, 4-(2,2,2-trifluroethoxy)phenyl-N-(2-butyl-4-pyrimidinyl)acetamide] | 0 | 0 | 0 | 100 | 80 | 0 | 100
CCCCc1nccc(NC(=O)Cc2ccc(Oc3ccc(F)cc3)cc2)n1 [Compound 21, 4-(4-fluorophenoxy)phenyl-N-(2-butyl-4-pyrimidinyl)acetamide] | 100 | 100 | 100 | 100 | 90 | 100 | 0
O=C(Cc1ccc(OCC(F)(F)F)cc1)Nc1ccnc(C2CCC2)n1 [Compound 22, 4-(2,2,2-trifluroethoxy)phenyl-N-(2-cyclobutyl-4-pyrimidinyl)acetamide] | 100 | 80 | 0 | 100 | 100 | 100 | 100
O=C(Cc1ccc(Oc2ccc(F)cc2)cc1)Nc1ccnc(C2CCC2)n1 [Compound 23, 4-(4-fluorophenoxy)phenyl-N-(2-cyclobutyl-4-pyrimidinyl)acetamide] | 100 | 100 | 100 | 100 | 100 | 100 | 0
CC(C)(C)c1nccc(NC(=O)Cc2ccc(OCC(F)(F)F)cc2)n1 [Compound 24, 4-(2,2,2-trifluroethoxy)phenyl-N-(2-(1,1-dimethylethyl)-4-pyrimidinyl)acetamide] | 60 | 0 | 100 | 100 | 0 | 90 | 100
CC(C)(C)c1nccc(NC(=O)Cc2ccc(Oc3ccc(F)cc3)cc2)n1 [Compound 25, 4-(4-fluorophenoxy)phenyl-N-(2-(1,1-dimethylethyl)-4-pyrimidinyl)acetamide] | 100 | 100 | 100 | 100 | 100 | 100 | 100
C=C(C)c1nccc(NC(=O)Cc2ccc(Oc3ccc(F)cc3)cc2)n1 [Compound 27, 4-(4-fluorophenoxy)phenyl-N-(2-(1-methylethenyl)-4-pyrimidinyl)acetamide] | 0 | 0 | 0 | 0 | 0 | 100 | 0
O=C(Cc1ccc(OCC(F)(F)F)cc1)Nc1ccncn1 [Compound 28, 4-(2,2,2-trifluroethoxy)phenyl-N-(4-pyrimidinyl)acetamide] | 0 | 0 | 0 | 0 | 0 | 100 | 0
O=C(Cc1ccc(Oc2ccc(Cl)cc2)cc1)Nc1ccnc(C2CC2)n1 [Compound 29, 4-(4-chlorophenoxy)phenyl-N-(2-cyclopropyl-4-pyrimidinyl)acetamide] | 100 | 100 | 100 | 100 | 0 | 100 | 0
CC(C)c1nccc(NC(=O)Cc2ccc(OCC(F)(F)F)cc2)n1 [Compound 30, 4-(2,2,2-trifluroethoxy)phenyl-N-(2-(1-methylethyl)-4-pyrimidinyl)acetamide] | 100 | 80 | 90 | 100 | 100 | 100 | 100
CC(C)c1nccc(NC(=O)Cc2ccc(Oc3ccc(F)cc3)cc2)n1 [Compound 31, 4-(4-fluorophenoxy)phenyl-N-(2-(1-methylethyl)-4-pyrimidinyl)acetamide] | 100 | 100 | 100 | 100 | 0 | 100 | 0
CCc1nccc(NC(=O)Cc2ccc(-c3ccccc3)cc2)n1 [Compound 40] | 0 |  | 40 | 20 |  | 60 | 
CCCCCc1ccc(CC(=O)Nc2ccnc(CC)n2)cc1 [Compound 41, 4-pentylphenyl-N-(2-ethyl-4-pyrimidinyl)acetamide] | 100 |  | 40 | 100 |  | 100 | 
CCc1nccc(NC(=O)Cc2ccc(OC(F)F)cc2)n1 [Compound 42, 4-difluromethoxy-N-(2-ethyl-4-pyrimidinyl)acetamide] | 100 |  | 0 | 40 |  | 100 | 
CCc1nccc(NC(=O)Cc2ccc(OCC(F)(F)C(F)F)cc2)n1 [Compound 43, 4-(2,2,3,3-tetrafluropropoxy)phenyl-N-(2-ethyl-4-pyrimidinyl)acetamide] | 100 |  | 60 | 60 |  | 100 | 
CCCCOc1ccc(CC(=O)Nc2ccnc(CC)n2)cc1 [Compound 44, 4-butoxyphenyl-N-(2-ethyl-4-pyrimidinyl)acetamide] | 90 |  | 0 | 100 |  | 100 | 
CCc1nccc(NC(=O)Cc2ccc(C(C)C)cc2)n1 [Compound 45, 4-(1-methylethyl)phenyl-N-(2-ethyl-4-pyrimidinyl)acetamide] | 100 |  | 0 | 100 |  | 100 | 
CCc1nccc(NC(=O)COc2ccc(C(C)C)cc2)n1 [Compound 46, 4-(1-methylethyl)phenoxy-N-(2-ethyl-4-pyrimidinyl)acetamide] | 0 |  | 0 | 0 |  | 0 | 
CCc1nccc(NC(=O)Cc2ccc(Oc3ccccc3)cc2)n1 [Compound 47, 4-phenoxyphenyl-N-(2-ethyl-4-pyrimidinyl)acetamide] | 100 |  | 40 | 100 |  | 100 | 
CCc1nccc(NC(=O)Cc2ccc(C(C)(C)C)cc2)n1 [Compound 48, 4-(1,1-dimethylethyl)phenyl-N-(2-ethyl-4-pyrimidinyl)acetamide] | 100 |  | 20 | 0 |  | 100 | 
CCc1nccc(NC(=O)Cc2ccc(Oc3ccc(C(C)=O)cc3)cc2)n1 [Compound 49, 4-(4-acetylphenoxy)phenyl-N-(2-ethyl-4-pyrimidinyl)acetamide] | 100 |  | 40 | 100 |  | 100 | 
CCc1nccc(NC(=O)Cc2ccc3ccccc3c2)n1 [Compound 50, 2-naphthyl-N-(2-ethyl-4-pyrimidinyl)acetamide] | 100 |  | 40 | 60 |  | 100 | 
